Measurements as given in PMC7044277 (Nature Communications, 2020).
“And” between values parts separate entries of the source, which are not always exact repeats. Equal entries are not always repeated.

Assays:
[1] = biological target: DRD2 (D2 long receptor) wild-type (Homo sapiens, UniProt P14416); experiment: Radioligand competition binding, [3H]-N-methylspiperone, HEK293T membranes; conditions: DRD2; [3H]-methylspiperone (0.8-1.0 nM); read-out: Ki
[2] = biological target: DRD3 wild-type (Homo sapiens, UniProt P35462); experiment: Radioligand competition binding, [3H]-N-methylspiperone
Sequence of DRD3 wild-type (P35462 whole entry): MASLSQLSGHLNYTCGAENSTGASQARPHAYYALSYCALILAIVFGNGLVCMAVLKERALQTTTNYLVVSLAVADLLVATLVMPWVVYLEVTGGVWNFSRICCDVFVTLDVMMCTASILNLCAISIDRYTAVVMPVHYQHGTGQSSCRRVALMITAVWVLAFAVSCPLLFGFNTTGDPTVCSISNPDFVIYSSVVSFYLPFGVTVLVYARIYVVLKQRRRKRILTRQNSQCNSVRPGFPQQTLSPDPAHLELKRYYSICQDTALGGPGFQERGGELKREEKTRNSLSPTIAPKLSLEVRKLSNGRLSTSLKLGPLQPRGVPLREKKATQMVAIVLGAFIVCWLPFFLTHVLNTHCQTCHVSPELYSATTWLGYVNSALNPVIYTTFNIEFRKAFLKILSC

[3] = biological target: T1, DRD4 (D4.4 variant) wild-type (Homo sapiens, UniProt P21917); experiment: as above; conditions: DRD4; [3H]-methylspiperone (0.8-1.0 nM); read-out: Ki
T1 sequence (P21917 1-419): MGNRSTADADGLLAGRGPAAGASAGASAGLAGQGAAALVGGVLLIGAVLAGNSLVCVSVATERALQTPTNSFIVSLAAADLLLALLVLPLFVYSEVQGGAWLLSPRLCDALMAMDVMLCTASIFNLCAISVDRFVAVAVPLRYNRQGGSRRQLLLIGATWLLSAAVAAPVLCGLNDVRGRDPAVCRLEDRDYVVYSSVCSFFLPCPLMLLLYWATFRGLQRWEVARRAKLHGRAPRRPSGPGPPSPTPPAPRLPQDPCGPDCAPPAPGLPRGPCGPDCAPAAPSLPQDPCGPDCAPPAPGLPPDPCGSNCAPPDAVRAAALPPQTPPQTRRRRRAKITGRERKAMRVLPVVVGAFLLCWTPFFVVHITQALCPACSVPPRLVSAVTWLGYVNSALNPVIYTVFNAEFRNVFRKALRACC

[4] = biological target: T2, DRD3 F1063.28A (Homo sapiens, UniProt P35462, F106A); experiment: biochemical; type: binding; conditions: DRD3 F1063.28A; read-out: Ki
T2 sequence (P35462 whole entry F106A): as the sequence (P35462 whole entry) above, with F106A counted along it

[5] = biological target: T3, DRD2 (D2 long receptor) (Homo sapiens, UniProt P14416); experiment: Gαi/o-mediated cAMP inhibition (GloSensor split-luciferase cAMP reporter), HEK293T; type: cell-based; conditions: for response, Fig_S11d dose-response source data: replicate values;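 as to all read-outs here: compounds applied 15 min at room temperature, then luciferin plus 400 nM isoproterenol to raise cAMP through endogenous β2-adrenergic receptors, luminescence read 15 min later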
T3 sequence (P14416 whole entry): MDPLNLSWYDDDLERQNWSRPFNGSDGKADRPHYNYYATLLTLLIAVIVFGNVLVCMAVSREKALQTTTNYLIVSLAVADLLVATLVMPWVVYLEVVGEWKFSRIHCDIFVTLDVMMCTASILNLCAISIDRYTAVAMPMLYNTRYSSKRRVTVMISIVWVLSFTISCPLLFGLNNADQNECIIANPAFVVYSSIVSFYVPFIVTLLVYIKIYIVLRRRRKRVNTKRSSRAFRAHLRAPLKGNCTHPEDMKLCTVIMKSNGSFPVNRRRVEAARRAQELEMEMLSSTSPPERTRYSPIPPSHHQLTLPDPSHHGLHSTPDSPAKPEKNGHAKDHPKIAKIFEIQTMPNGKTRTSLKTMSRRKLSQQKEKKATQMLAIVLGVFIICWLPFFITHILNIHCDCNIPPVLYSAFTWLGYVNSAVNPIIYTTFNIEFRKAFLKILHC

[6] = biological target: T4, DRD4 (D4.4 variant) (Homo sapiens, UniProt P21917); experiment: Gαi/o-mediated cAMP inhibition (GloSensor); type: cell-based; conditions: DRD4; agonist, cAMP inhibition; read-out: EC50 ± SEM
T4 sequence (P21917 1-419): T1 sequence (P21917 1-419)

[7] = biological target: T5, DRD2 F1103.28L (Homo sapiens, UniProt P14416, F110L); experiment: Gαi/o-mediated cAMP inhibition (GloSensor), mutant; type: cell-based; conditions: DRD2 F1103.28L (b138 head prints DRD2 F1063.28L)
T5 construct: expressed in transfected cells; host or cells: HEK293T (ATCC CRL-11268)
T5 sequence (P14416 whole entry F110L): as the sequence (P14416 whole entry) above, with F110L counted along it

[8] = biological target: T3, DRD2 (D2 long receptor); experiment: β-arrestin2 recruitment (Tango), HTLA cells; type: cell-based; conditions: for response, Fig_S11e dose-response source data: replicate values
[9] = biological target: DRD3 (Homo sapiens, UniProt P35462); experiment: β-arrestin2 recruitment (Tango); type: cell-based; conditions: DRD3; Tango; read-out: EC50 ± SEM
Sequence of DRD3 (P35462 whole entry): as the sequence (P35462 whole entry) above

[10] = biological target: T4, DRD4 (D4.4 variant); experiment: β-arrestin2 recruitment (Tango); type: cell-based; conditions: DRD4; Tango; read-out: EC50 ± SEM
[11] = biological target: T5, DRD2 F1103.28L; experiment: β-arrestin2 recruitment (Tango), mutant; type: cell-based
[12] = biological target: T2, DRD3 F1063.28A; experiment: cell-based; type: cell-based; conditions: DRD3 F1063.28A; Tango; read-out: EC50 ± SEM
[13] = biological target: T6, DRD2 F1103.28A (Homo sapiens, UniProt P14416, F110A); type: binding; set-up: expressed in transfected cells; host or cells: HEK293T (ATCC CRL-11268); conditions: DRD2 F1103.28A; read-out: Ki
T6 sequence (P14416 whole entry F110A): as the sequence (P14416 whole entry) above, with F110A counted along it

[14] = biological target: T6, DRD2 F1103.28A; experiment: Gαi/o-mediated cAMP inhibition (GloSensor), mutant; type: cell-based; set-up: expressed in transfected cells; host or cells: HEK293T (ATCC CRL-11268)
[15] = biological target: T6, DRD2 F1103.28A; experiment: β-arrestin2 recruitment (Tango), mutant; type: cell-based; set-up: expressed in transfected cells; host or cells: HEK293T (ATCC CRL-11268)

Sequence of DRD2 (D2 long receptor) wild-type (P14416 whole entry): as the sequence (P14416 whole entry) above

SMILES: CCOc1cccc2cc(C(C)NCC3(O)CCC3)oc12.Cl (centres unmarked) [O4LE4]
- Ki [1]: > 10 µM
- Ki ([2]; DRD3, [3H]-methylspiperone (0.8-1.0 nM), read-out: Ki): 4.07 µM
- pKi ± SEM ([2]; DRD3 wild-type): 5.39±0.09
- Ki [3]: > 10 µM
- Ki [4]: > 10 µM
- EC50 ([5]; DRD2, agonist, Gαi/o-mediated cAMP inhibition, read-out: EC50 ± SEM): > 10 µM
- response, Fig_S11d dose-response source data ([5]; Log[Drug] -5): 88.7746 and 78.3782 and 91.7272 and 89.26 and 93.9579 and 91.5672
- response, Fig_S11d dose-response source data ([5]; Log[Drug] -5.52): 76.2939 and 86.2437 and 82.5466 and 72.7587 and 77.8913 and 84.3113
- response, Fig_S11d dose-response source data ([5]; Log[Drug] -6): 73.2172 and 67.3366 and 60.3892 and 68.228 and 67.275 and 64.901
- response, Fig_S11d dose-response source data ([5]; Log[Drug] -6.52): 64.6321 and 59.5207 and 69.0487 and 71.8726 and 63.9982 and 65.6366
- response, Fig_S11d dose-response source data ([5]; Log[Drug] -7): 48.9755 and 46.0724 and 53.9876 and 53.6995 and 51.8772 and 46.0423
- response, Fig_S11d dose-response source data ([5]; Log[Drug] -7.52): 42.028 and 41.6806 and 36.1226 and 35.9109 and 33.9715 and 35.5263
- response, Fig_S11d dose-response source data ([5]; Log[Drug] -8): 31.6316 and 34.088 and 41.4325 and 32.2829 and 31.564 and 29.1733
- response, Fig_S11d dose-response source data ([5]; Log[Drug] -8.52): 10.5658 and 5.306 and 29.9195 and 26.7491 and 32.2996 and 23.9905
- response, Fig_S11d dose-response source data ([5]; Log[Drug] -9): 29.0014 and 17.2156 and 19.2005 and 25.2611
- response, Fig_S11d dose-response source data ([5]; Log[Drug] -9.52): 13.8163 and 7.489 and 22.6246 and 25.1441 and 33.3529 and 8.96
- response, Fig_S11d dose-response source data ([5]; Log[Drug] -10): 3.445 and 9.573 and 23.9738 and 15.1965 and 19.209
- response, Fig_S11d dose-response source data ([5]; Log[Drug] -10.52): 10.9876 and 14.9328 and 18.3073 and 10.6825 and 15.9488
- response, Fig_S11d dose-response source data ([5]; Log[Drug] -11): 8.655 and 3.048 and 14.6949 and 5.45 and 17.0857
- response, Fig_S11d dose-response source data ([5]; Log[Drug] -11.52): 13.0471 and 8.407 and 20.4163
- response, Fig_S11d dose-response source data ([5]; Log[Drug] -12): 4.834 and -8.7134 and -10.8678 and -0.937
- EC50 [6]: > 10 µM
- EC50 [7]: > 10 µM
- Emax relative to quinpirole response ([8]; DRD2, Tango): 31.72%
- EC50 ([8]; DRD2, β-arrestin2 recruitment (Tango), read-out: EC50 ± SEM): 4.89 ± 0.671 µM
- response, Fig_S11e dose-response source data ([8]; Log[Drug] -6.52): 6.042
- response, Fig_S11e dose-response source data ([8]; Log[Drug] -7): 4.575 and 5.092 and 4.213 and 4.207 and 4.48
- response, Fig_S11e dose-response source data ([8]; Log[Drug] -7.52): 3.784 and 4.2108 and 4.594 and 4.116 and 3.67
- response, Fig_S11e dose-response source data ([8]; Log[Drug] -8): 3.831 and 3.706 and 4.29 and 4.002 and 5.34
- response, Fig_S11e dose-response source data ([8]; Log[Drug] -8.52): 4.064 and 3.966 and 4.203 and 4.282 and 4.286
- response, Fig_S11e dose-response source data ([8]; Log[Drug] -9): 3.882 and 3.744 and 4.042 and 3.918 and 3.839
- response, Fig_S11e dose-response source data ([8]; Log[Drug] -9.52): 3.68 and 4.032 and 4.215 and 3.926 and 3.7929
- response, Fig_S11e dose-response source data ([8]; Log[Drug] -10): 3.326 and 3.898 and 4.025 and 3.996
- response, Fig_S11e dose-response source data ([8]; Log[Drug] -10.52): 3.698 and 4.067 and 4.341 and 4.225 and 3.808
- response, Fig_S11e dose-response source data ([8]; Log[Drug] -11): 4.084 and 3.675 and 4.011 and 3.975 and 3.611
- response, Fig_S11e dose-response source data ([8]; Log[Drug] -11.52): 3.79 and 4.079 and 4.55 and 4.262 and 4.155
- response, Fig_S11e dose-response source data ([8]; Log[Drug] -12): 5.029 and 3.661 and 4.455 and 4.071 and 4.046
- EC50 [9]: > 10 µM
- EC50 [10]: > 10 µM
- EC50 [11]: > 10 µM
- EC50 [12]: > 10 µM
- Ki [13]: > 10 µM
- EC50 [14]: > 10 µM
- EC50 [15]: > 10 µM
